Results reported in paper PMC5218480 (PLoS ONE, 2017).

Test system: MV-4-11 cells
Assay: Gene expression microarray analysis (Affymetrix PrimeView) and GSEA
Type: cell-based, human
Design: RFU PODN (11730768_x_at) / Fold change /veh PODN (11730768_x_at) / RFU LINC00158 (11744669_a_at) / Fold change /veh LINC00158 (11744669_a_at) / RFU DUSP10 (11751237_a_at) / Fold change /veh DUSP10 (11751237_a_at) / RFU ID3 (11757404_x_at) / Fold change /veh ID3 (11757404_x_at) / RFU PLEKHG5 (11737974_s_at) / Fold change /veh PLEKHG5 (11737974_s_at) / RFU LRRC4B (11730491_at) / Fold change /veh LRRC4B (11730491_at) / RFU GIMAP4 (11747438_a_at) / Fold change /veh GIMAP4 (11747438_a_at) / RFU KRT8 (11758183_x_at) / Fold change /veh KRT8 (11758183_x_at) / RFU CNN1 (11734310_a_at) / Fold change /veh CNN1 (11734310_a_at) / RFU VPS37D (11726825_at) / Fold change /veh VPS37D (11726825_at) / RFU C10orf10 (11716522_x_at) / Fold change /veh C10orf10 (11716522_x_at) / RFU KIR2DL2 /// KIR2DL4 /// KIR2DL5A /// KIR2DL5B /// KIR2DS1 /// KIR2DS2 /// KIR2DS3 /// KIR2DS4 /// KIR3DL3 /// KIR3DL3 /// KIR3DS1 (11738374_at) / Fold change /veh KIR2DL2 /// KIR2DL4 /// KIR2DL5A /// KIR2DL5B /// KIR2DS1 /// KIR2DS2 /// KIR2DS3 /// KIR2DS4 /// KIR3DL3 /// KIR3DL3 /// KIR3DS1 (11738374_at) / RFU C1QL1 (11718748_at) / Fold change /veh C1QL1 (11718748_at) / RFU TMPRSS4 (11747572_a_at) / Fold change /veh TMPRSS4 (11747572_a_at) / RFU HAMP (11756126_x_at) / Fold change /veh HAMP (11756126_x_at) / RFU RNFT2 (11725882_a_at) / Fold change /veh RNFT2 (11725882_a_at) / RFU NR4A2 (11747474_a_at) / Fold change /veh NR4A2 (11747474_a_at) / RFU ABCC12 (11746883_a_at) / Fold change /veh ABCC12 (11746883_a_at) / RFU TMEM136 (11760407_x_at) / Fold change /veh TMEM136 (11760407_x_at) / RFU CLDN22 /// WWC2 (11732394_at) / Fold change /veh CLDN22 /// WWC2 (11732394_at) / RFU HLA-DPB1 (11760878_x_at) / Fold change /veh HLA-DPB1 (11760878_x_at) / RFU SPINT1 (11716480_a_at) / Fold change /veh SPINT1 (11716480_a_at) / RFU GAP43 (11754022_s_at) / Fold change /veh GAP43 (11754022_s_at) / RFU A4GNT (11735810_at) / Fold change /veh A4GNT (11735810_at) / RFU PRB3 (11715151_x_at) / Fold change /veh PRB3 (11715151_x_at) / RFU TUBB4B (11761932_at) / Fold change /veh TUBB4B (11761932_at) / RFU CAPN14 (11732068_a_at) / Fold change /veh CAPN14 (11732068_a_at) / RFU TMCC2 (11721928_a_at) / Fold change /veh TMCC2 (11721928_a_at) / RFU IRGQ (11745062_a_at) / Fold change /veh IRGQ (11745062_a_at) / RFU FAM174B (11720279_a_at) / Fold change /veh FAM174B (11720279_a_at) / RFU TMPRSS4 (11748680_a_at) / Fold change /veh TMPRSS4 (11748680_a_at) / RFU FAM212B (11763350_a_at) / Fold change /veh FAM212B (11763350_a_at) / RFU PLEKHG5 (11743358_a_at) / Fold change /veh PLEKHG5 (11743358_a_at) / RFU ZSCAN30 (11745921_a_at) / Fold change /veh ZSCAN30 (11745921_a_at) / RFU CMKLR1 (11741424_a_at) / Fold change /veh CMKLR1 (11741424_a_at) / RFU LOC101060620 /// MAPK8IP1 (11723275_at) / Fold change /veh LOC101060620 /// MAPK8IP1 (11723275_at) / RFU SPTSSB (11747773_x_at) / Fold change /veh SPTSSB (11747773_x_at) / RFU PRSS12 (11739890_at) / Fold change /veh PRSS12 (11739890_at) / RFU BIN1 (11741810_x_at) / Fold change /veh BIN1 (11741810_x_at) / RFU WNT11 (11732464_a_at) / Fold change /veh WNT11 (11732464_a_at) / RFU C10orf10 (11716521_a_at) / Fold change /veh C10orf10 (11716521_a_at) / RFU C5orf56 (11738089_at) / Fold change /veh C5orf56 (11738089_at) / RFU CYB561 (11721691_x_at) / Fold change /veh CYB561 (11721691_x_at) / RFU ANKRD19P (11752326_a_at) / Fold change /veh ANKRD19P (11752326_a_at) / RFU OR2T12 /// OR2T33 /// OR2T8 (11738714_s_at) / Fold change /veh OR2T12 /// OR2T33 /// OR2T8 (11738714_s_at) / RFU VCAN (11748164_a_at) / Fold change /veh VCAN (11748164_a_at) / RFU JSRP1 (11732532_at) / Fold change /veh JSRP1 (11732532_at) / RFU KRTAP10-11 (11738290_x_at) / Fold change /veh KRTAP10-11 (11738290_x_at) / RFU MYO3A (11730013_a_at) / Fold change /veh MYO3A (11730013_a_at) / RFU EBF3 (11725865_a_at) / Fold change /veh EBF3 (11725865_a_at) / RFU CAMK2N1 (11719241_x_at) / Fold change /veh CAMK2N1 (11719241_x_at) / RFU C5orf56 (11738088_a_at) / Fold change /veh C5orf56 (11738088_a_at) / RFU OLFML3 (11715873_a_at) / Fold change /veh OLFML3 (11715873_a_at) / RFU LOC100653217 /// NTM (11731650_a_at) / Fold change /veh LOC100653217 /// NTM (11731650_a_at) / RFU MAPK11 (11762145_a_at) / Fold change /veh MAPK11 (11762145_a_at) / RFU FIZ1 (11724087_x_at) / Fold change /veh FIZ1 (11724087_x_at) / RFU OASL (11726364_x_at) / Fold change /veh OASL (11726364_x_at) / RFU SOX15 (11748057_x_at) / Fold change /veh SOX15 (11748057_x_at) / RFU CD79A (11719716_a_at) / Fold change /veh CD79A (11719716_a_at) / RFU HIST1H1D (11736915_at) / Fold change /veh HIST1H1D (11736915_at) / RFU CASKIN2 (11723855_a_at) / Fold change /veh CASKIN2 (11723855_a_at) / RFU LOC730098 (11760151_x_at) / Fold change /veh LOC730098 (11760151_x_at) / RFU OR4N2 (11742367_at) / Fold change /veh OR4N2 (11742367_at) / RFU PRRT2 (11749266_a_at) / Fold change /veh PRRT2 (11749266_a_at) / RFU SNX32 (11753110_a_at) / Fold change /veh SNX32 (11753110_a_at) / RFU CDHR5 (11726645_a_at) / Fold change /veh CDHR5 (11726645_a_at) / RFU RCAN1 (11760418_a_at) / Fold change /veh RCAN1 (11760418_a_at) / RFU FAM167A (11723789_a_at) / Fold change /veh FAM167A (11723789_a_at) / RFU FAM26E (11764081_at) / Fold change /veh FAM26E (11764081_at) / RFU ISYNA1 (11749810_s_at) / Fold change /veh ISYNA1 (11749810_s_at) / RFU ACY1 (11761880_at) / Fold change /veh ACY1 (11761880_at) / RFU 11764098_at / Fold change /veh 11764098_at / RFU SAMD14 (11745864_x_at) / Fold change /veh SAMD14 (11745864_x_at) / RFU NPB (11741838_a_at) / Fold change /veh NPB (11741838_a_at) / RFU TMPRSS6 (11731388_a_at) / Fold change /veh TMPRSS6 (11731388_a_at) / RFU KRTAP10-2 (11738614_at) / Fold change /veh KRTAP10-2 (11738614_at) / RFU ARHGAP8 /// PRR5-ARHGAP8 (11727945_x_at) / Fold change /veh ARHGAP8 /// PRR5-ARHGAP8 (11727945_x_at) / RFU KRTAP5-7 /// NADSYN1 (11734609_at) / Fold change /veh KRTAP5-7 /// NADSYN1 (11734609_at) / RFU RASL12 (11751679_a_at) / Fold change /veh RASL12 (11751679_a_at) / RFU CDKN2B (11736163_a_at) / Fold change /veh CDKN2B (11736163_a_at) / RFU PRF1 (11729649_at) / Fold change /veh PRF1 (11729649_at) / RFU, ZNF638 /// ZNF638-IT1 / Fold change vs veh, ZNF638 /// ZNF638-IT1 / RFU, PANK3 / Fold change vs veh, PANK3 / RFU, SH3YL1 / Fold change vs veh, SH3YL1 / RFU, ZEB2 / Fold change vs veh, ZEB2 / RFU, NRIP1 / Fold change vs veh, NRIP1 / RFU, PTTG1IP / Fold change vs veh, PTTG1IP / RFU, CAPN2 / Fold change vs veh, CAPN2 / RFU, MED14 / Fold change vs veh, MED14 / RFU, SNORA58 / Fold change vs veh, SNORA58 / RFU, C1orf63 / Fold change vs veh, C1orf63 / RFU, LRRFIP1 / Fold change vs veh, LRRFIP1 / RFU, NDUFAF7 / Fold change vs veh, NDUFAF7 / RFU, SLC12A2 / Fold change vs veh, SLC12A2 / RFU, IBTK / Fold change vs veh, IBTK / RFU, ESF1 / Fold change vs veh, ESF1 / Fold change vs veh, TMEM50B / RFU, TAOK1 / Fold change vs veh, TAOK1 / RFU, ACBD3 / Fold change vs veh, ACBD3 / RFU, TMA16 / Fold change vs veh, TMA16 / RFU, RWDD3 / Fold change vs veh, RWDD3 / RFU, BCAT1 / Fold change vs veh, BCAT1 / RFU, EDEM3 / Fold change vs veh, EDEM3 / RFU, TMEM33 / Fold change vs veh, TMEM33 / RFU, WDR75 / Fold change vs veh, WDR75 / RFU, AHCTF1 / Fold change vs veh, AHCTF1 / RFU, TFRC / Fold change vs veh, TFRC / RFU, ZDHHC17 / Fold change vs veh, ZDHHC17 / RFU, NOM1 / Fold change vs veh, NOM1 / RFU, ARL8B / Fold change vs veh, ARL8B / RFU, ZBTB11 / Fold change vs veh, ZBTB11 / RFU, TAMM41 / Fold change vs veh, TAMM41 / RFU, KIAA1704 /// LOC100996395 / Fold change vs veh, KIAA1704 /// LOC100996395 / RFU, ING1 / Fold change vs veh, ING1 / RFU, TRMT61B / Fold change vs veh, TRMT61B / RFU, FUBP3 / Fold change vs veh, FUBP3 / RFU, TP53 / Fold change vs veh, TP53 / RFU, TNKS2 / Fold change vs veh, TNKS2 / RFU, ZFP14 / Fold change vs veh, ZFP14 / RFU, ACTR2 / Fold change vs veh, ACTR2 / RFU, PPP3R1 / Fold change vs veh, PPP3R1 / RFU, PIK3R1 / Fold change vs veh, PIK3R1 / RFU, HNRNPA1 / Fold change vs veh, HNRNPA1 / RFU, RNF170 / Fold change vs veh, RNF170 / RFU, ZNF28 / Fold change vs veh, ZNF28 / RFU, RNGTT / Fold change vs veh, RNGTT / RFU, OGT / Fold change vs veh, OGT / RFU, BRD1 / Fold change vs veh, BRD1 / RFU, MARS / Fold change vs veh, MARS / RFU, ZNF655 / Fold change vs veh, ZNF655 / RFU, FAHD1 / Fold change vs veh, FAHD1 / RFU, BDP1 / Fold change vs veh, BDP1 / RFU, LRRCC1 / Fold change vs veh, LRRCC1 / RFU, ARID1A / Fold change vs veh, ARID1A / RFU, ZNF146 / Fold change vs veh, ZNF146 / RFU, ZNF330 / Fold change vs veh, ZNF330 / RFU, GPN3 / Fold change vs veh, GPN3 / RFU, C9orf123 / Fold change vs veh, C9orf123 / RFU, N4BP2L2 / Fold change vs veh, N4BP2L2 / RFU, ARFIP1 / Fold change vs veh, ARFIP1 / RFU, FAM179B / Fold change vs veh, FAM179B / RFU, BCL10 / Fold change vs veh, BCL10 / RFU, UHRF1BP1L / Fold change vs veh, UHRF1BP1L / RFU, BET1 / Fold change vs veh, BET1 / RFU, CNOT2 / Fold change vs veh, CNOT2 / RFU, ZNF268 / Fold change vs veh, ZNF268 / Fold change vs veh, ZNF507 / RFU, DGCR2 / Fold change vs veh, DGCR2 / RFU, WDSUB1 / Fold change vs veh, WDSUB1 / Fold change vs veh, HSP90B1 /// MIR3652 / RFU, ADSS / Fold change vs veh, ADSS / RFU, GK / Fold change vs veh, GK / RFU, ZNF148 / Fold change vs veh, ZNF148 / RFU, TAF9 / Fold change vs veh, TAF9 / RFU, SLC1A5 / Fold change vs veh, SLC1A5 / RFU, SLMO2 / Fold change vs veh, SLMO2 / RFU, ABCC4 / Fold change vs veh, ABCC4 / RFU, LOC101060439 /// RAP1B / Fold change vs veh, LOC101060439 /// RAP1B / RFU, RFX7 / Fold change vs veh, RFX7 / RFU, GTPBP10 / Fold change vs veh, GTPBP10 / RFU, CNEP1R1 / Fold change vs veh, CNEP1R1 / RFU, BIVM-ERCC5 /// ERCC5 / Fold change vs veh, BIVM-ERCC5 /// ERCC5 / RFU, ILF3 / Fold change vs veh, ILF3 / RFU 11762660_at / Fold change /veh 11762660_at / RFU VCAN (11757783_s_at) / Fold change /veh VCAN (11757783_s_at) / RFU DDX43 (11728927_at) / Fold change /veh DDX43 (11728927_at) / RFU KRT8 (11758188_x_at) / Fold change /veh KRT8 (11758188_x_at) / RFU NKD1 (11759106_at) / Fold change /veh NKD1 (11759106_at) / RFU SRD5A1 (11742802_a_at) / Fold change /veh SRD5A1 (11742802_a_at) / RFU TPSAB1 /// TPSB2 (11721975_s_at) / Fold change /veh TPSAB1 /// TPSB2 (11721975_s_at) / RFU GSTM3 (11746129_a_at) / Fold change /veh GSTM3 (11746129_a_at) / RFU IL23R (11737362_x_at) / Fold change /veh IL23R (11737362_x_at) / RFU TMEM51 (11727254_a_at) / Fold change /veh TMEM51 (11727254_a_at) / RFU PIWIL2 (11732686_x_at) / Fold change /veh PIWIL2 (11732686_x_at) / RFU ORM1 (11744905_x_at) / Fold change /veh ORM1 (11744905_x_at) / RFU CCDC152 (11743942_at) / Fold change /veh CCDC152 (11743942_at) / RFU ECM1 (11717891_a_at) / Fold change /veh ECM1 (11717891_a_at) / RFU IL23R (11748794_a_at) / Fold change /veh IL23R (11748794_a_at) / RFU TNFAIP8L3 (11732012_x_at) / Fold change /veh TNFAIP8L3 (11732012_x_at) / RFU MBOAT4 (11741988_at) / Fold change /veh MBOAT4 (11741988_at) / RFU 11764193_at / Fold change /veh 11764193_at / RFU TMEM53 (11763286_at) / Fold change /veh TMEM53 (11763286_at) / RFU MAGEB2 (11727129_at) / Fold change /veh MAGEB2 (11727129_at) / RFU TMEM200A (11744735_a_at) / Fold change /veh TMEM200A (11744735_a_at) / RFU CCDC152 (11751479_a_at) / Fold change /veh CCDC152 (11751479_a_at) / RFU FAM211A (11726209_a_at) / Fold change /veh FAM211A (11726209_a_at) / RFU RGS16 (11746705_a_at) / Fold change /veh RGS16 (11746705_a_at) / RFU VCAN (11755009_s_at) / Fold change /veh VCAN (11755009_s_at) / RFU RHOB (11743442_s_at) / Fold change /veh RHOB (11743442_s_at) / RFU RGS16 (11720943_a_at) / Fold change /veh RGS16 (11720943_a_at) / RFU RGS16 (11720944_at) / Fold change /veh RGS16 (11720944_at) / RFU, VPS4B / Fold change vs veh, VPS4B / RFU, CREB1 / Fold change vs veh, CREB1 / RFU, DNAJC13 / Fold change vs veh, DNAJC13 / RFU, GNAQ / Fold change vs veh, GNAQ / RFU, CDK5R1 / Fold change vs veh, CDK5R1 / RFU, ZRANB3 / Fold change vs veh, ZRANB3 / RFU, CUL4A / Fold change vs veh, CUL4A / RFU, CCNY / Fold change vs veh, CCNY / RFU, UFL1 / Fold change vs veh, UFL1 / RFU, COG3 / Fold change vs veh, COG3 / RFU, DIAPH2 / Fold change vs veh, DIAPH2 / RFU, SKA2 / Fold change vs veh, SKA2 / RFU, AFF3 / Fold change vs veh, AFF3 / RFU, LMF1 / Fold change vs veh, LMF1 / RFU, IPO11 / Fold change vs veh, IPO11 / RFU, DFFB / Fold change vs veh, DFFB / RFU, FOXP1 / Fold change vs veh, FOXP1 / RFU, CARD8 / Fold change vs veh, CARD8 / RFU, STRN3 / Fold change vs veh, STRN3 / RFU, ADK / Fold change vs veh, ADK / RFU, RASSF2 / Fold change vs veh, RASSF2 / RFU, WIPF1 / Fold change vs veh, WIPF1 / RFU, LARP1B / Fold change vs veh, LARP1B / RFU, RASA1 / Fold change vs veh, RASA1 / RFU, RB1 / Fold change vs veh, RB1 / RFU, PPFIA1 / Fold change vs veh, PPFIA1 / RFU, MAT2A / Fold change vs veh, MAT2A / RFU, CCT5 / Fold change vs veh, CCT5 / RFU, WDR92 / Fold change vs veh, WDR92 / RFU, CUX1 / Fold change vs veh, CUX1 / RFU, TTC7A / Fold change vs veh, TTC7A / RFU, TMEM135 / Fold change vs veh, TMEM135 / RFU, DEPTOR / Fold change vs veh, DEPTOR / RFU, CPM / Fold change vs veh, CPM / RFU, DNAJB6 / Fold change vs veh, DNAJB6 / RFU, CACNA2D3 / Fold change vs veh, CACNA2D3 / RFU, DTX4 / Fold change vs veh, DTX4 / RFU, TFCP2 / Fold change vs veh, TFCP2 / RFU, GMCL1 /// GMCL1P1 / Fold change vs veh, GMCL1 /// GMCL1P1 / RFU, AEBP2 / Fold change vs veh, AEBP2 / RFU, SNHG1 /// SNORD22 /// SNORD25 /// SNORD26 /// SNORD27 /// SNORD28 /// SNORD29 /// SNORD31 / Fold change vs veh, SNHG1 /// SNORD22 /// SNORD25 /// SNORD26 /// SNORD27 /// SNORD28 /// SNORD29 /// SNORD31 / Fold change (Aza/veh), C12orf56 (ProbeSet 11735607_a_at) / Fold change (ACY-1035/veh), C12orf56 (ProbeSet 11735607_a_at) / Fold change (Aza/veh), FGFR1OP (ProbeSet 11751329_s_at) / Fold change (ACY-1035/veh), FGFR1OP (ProbeSet 11751329_s_at) / Fold change (Aza/veh), VPS36 (ProbeSet 11739960_a_at) / Fold change (ACY-1035/veh), VPS36 (ProbeSet 11739960_a_at) / RFU SYPL1 (11715823_x_at) / Fold change /veh SYPL1 (11715823_x_at) / RFU IGFBP7 (11715501_s_at) / Fold change /veh IGFBP7 (11715501_s_at) / RFU REEP3 (11722064_at) / Fold change /veh REEP3 (11722064_at) / RFU IGLL1 (11728026_x_at) / Fold change /veh IGLL1 (11728026_x_at): dose or concentration left out as unconfirmed
Settings: MV-4-11 cells, 48 hours

## Nc1ncn([C@@H]2O[C@H](CO)[C@@H](O)[C@H]2O)c(=O)n1 [azacitidine]
  Fold change /veh HIST1H1D (11736915_at): 1.16
